Laboratory results: US20240174762A1, “METHODS, COMPOSITIONS AND USES FOR TARGETING SEMA7A IN THE DIAGNOSIS AND TREATMENT OF HEALTH CONDITIONS” (THE REGENTS OF THE UNIVERSITY OF COLORADO, A BODY CORPORATE, priority 2021, published 2024)

Tested on: human MCF7 model of ER+ breast cancer
Assay: ER+ SEMA7A expressing tumors, human MCF7 model
Assay type: in vivo, mice
Conditions: FIG. 11
Excerpt: FIGS. 11A-11H represents various graphs and images of tumor analysis and treatment according to various aspects of the disclosure. (A) represents analysis for relapse free survival of breast cancer patients treated with endocrine therapy assessed for SEMA7A levels; (B) MCF7 tumor cell growth in mice treated with endocrine therapy (e.g., Fulvestrant); (C) Lung metastasis of MCF7 in mice from 11B; (D) is a representative image illustrating BCL2 expression in SEMA7A OE cells; (E) MCF7 tumor growth in mice treated with endocrine therapy and a Bcl-2 inhibitor (e.g., Venetoclax) indicated by the arrows; (F) Lung metastasis in mice from […] above; (G) illustrates clonogenic growth of MCF7 EV or SEMA7A OE cells treated with 5 μM SU6656; clonogenic data are normalized to vehicle controls; and (H) represents clonogenic growth of MCF7 EV or SEMA7A OE cells treated with a composition according to various aspects of the disclosure.
In another exemplary method, ER+SEMA7A expressing tumors are resistant to anti-estrogen-based therapy (Fulvestrant), anti-CDK4/6 therapy (Palbociclib), and chemotherapy but are sensitive to inhibition of cell survival pathways. […]

Structure (SMILES): C[C@]12CC[C@@H]3c4ccc(O)cc4C[C@@H](CCCCCCCCC[S+]([O-])CCCC(F)(F)C(F)(F)F)[C@H]3[C@@H]1CC[C@@H]2O (stereo partly shown) [Fulvestrant]
- response of ER+SEMA7A expressing tumors to therapy: resistant
